From patent publication US9714228B2, “Dihydrofuran derivatives as insecticidal compounds” (Syngenta Participations AG, priority 2010, dated 2017)

How the values were obtained:
Format in all cases: in vivo
[1] = test system: Spodoptera littoralis; assay: Spodoptera littoralis, sprayed cotton leaf discs, L1 larvae; conditions: foliar, 72 h, cotton leaf discs sprayed at 200 ppm, 3 days after treatment
Text: Spodoptera littoralis (Egyptian Cotton Leafworm): Cotton leaf discs were placed on agar in a 24-well microtiter plate and sprayed with test solutions at an application rate of 200 ppm. After drying, the leaf discs were infested with 5 L1 larvae. The samples were checked for mortality, feeding behavior, and growth regulation 3 days after treatment (DAT).

[2] = test system: Diabrotica balteata; assay: Diabrotica balteata, L2 larvae on treated artificial diet; conditions: 120 h, 200 ppm (concentration in well 18 ppm), 5 days incubation
Procedure: (§1) Diabrotica balteata (Corn Root Worm): A 24-well microtiter plate (MTP) with artificial diet was treated with test solutions at an application rate of 200 ppm (concentration in well 18 ppm) by pipetting. After drying, the MTPs were infested with L2 larvae (6-10 per well). After an incubation period of 5 days, samples were checked for larval mortality and growth regulation.

[3] = test system: Plutella xylostella; assay: Plutella xylostella, L2 larvae on treated artificial diet; conditions: 144 h, 200 ppm (concentration in well 18 ppm), 6 days incubation
Procedure: as §1, with “Plutella xylostella (Diamond Back Moth):” for “Diabrotica balteata (Corn Root Worm): A”, “(7-12” for “(6-10”, “6” for “5”

[4] = test system: Heliothis virescens; assay: Heliothis virescens, eggs on treated artificial diet; conditions: 96 h, 200 ppm (concentration in well 18 ppm), 4 days incubation
Procedure: Heliothis virescens (Tobacco Budworm): Eggs (0-24 h old) were placed in 24-well microtiter plate on artificial diet and treated with test solutions at an application rate of 200 ppm (concentration in well 18 ppm) by pipetting. After an incubation period of 4 days, samples were checked for egg mortality, larval mortality, and growth regulation.

[5] = test system: Tetranychus urticae; assay: Tetranychus urticae, sprayed bean leaf discs; conditions: foliar, 192 h, bean leaf discs sprayed at 200 ppm, mixed ages, checked 8 days later
Text: Tetranychus urticae (Two-Spotted Spider Mite): Bean leaf discs on agar in 24-well microtiter plates were sprayed with test solutions at an application rate of 200 ppm. After drying, the leaf discs are infested with mite populations of mixed ages. 8 days later, discs are checked for egg mortality, larval mortality, and adult mortality.

[6] = test system: Thrips tabaci; assay: Thrips tabaci, sprayed sunflower leaf discs; conditions: foliar, 168 h, sunflower leaf discs sprayed at 200 ppm, mixed ages, mortality after 7 days
Procedure: Thrips tabaci (Onion Thrips): Sunflower leaf discs were placed on agar in a 24-well microtiter plate and sprayed with test solutions at an application rate of 200 ppm. After drying, the leaf discs were infested with an […] population of mixed ages. After an incubation period of 7 days, samples were checked for mortality.

[7] = test system: Myzus persicae; assay: Myzus persicae (sachet), mixed population, sucrose solution; conditions: 120 h, application rate 12.5 ppm, mortality 5 days after infestation
Text: Myzus persicae (Sachet) (Green Peach Aphid) Mixed Population Test compounds were applied by pipette into 24 well plates and mixed with Sucrose solution. The plates were closed with a stretched Parafilm. A plastic stencil with 24 holes is placed onto the plate and infested pea seedlings were placed directly on the Parafilm. The infested plate is closed with a gel blotting paper and another plastic stencil and then turned upside down. 5 days after infestation the samples were checked on mortality. Application rate: 12.5 ppm.

Cc1cc(C2=CC(c3cc(Cl)cc(Cl)c3)(C(F)(F)F)OC2)ccc1C(=O)NCc1ccc2c(c1)OCCO2 (stereo not drawn) [Compound A44]
≥ 80%: pest or weed control at 200 ppm [1] | pest or weed control at 200 ppm [2] | pest or weed control at 200 ppm [3] | pest or weed control at 200 ppm [4]

Cc1cc(C2=CC(c3cc(Cl)cc(Cl)c3)(C(F)(F)F)OC2)ccc1C(=O)NC1CC(=NOCC(F)(F)F)C1 (stereo not drawn) [Compound A79]
≥ 80%: pest or weed control at 200 ppm [5] | pest or weed control at 200 ppm [1] | pest or weed control at 200 ppm [2] | pest or weed control at 200 ppm [3] | pest or weed control at 200 ppm [4] | pest or weed control at 200 ppm [6]

CCCCNC(=O)c1ccc(C2=COC(c3cc(Cl)cc(Cl)c3)(C(F)(F)F)C2)cc1C (stereo not drawn) [Compound D3]
≥ 80%: pest or weed control at 12.5 ppm [7] | pest or weed control at 200 ppm [5] | pest or weed control at 200 ppm [1] | pest or weed control at 200 ppm [2] | pest or weed control at 200 ppm [3] | pest or weed control at 200 ppm [4] | pest or weed control at 200 ppm [6]

COCC(C)NC(=O)c1ccc(C2=COC(c3cc(Cl)cc(Cl)c3)(C(F)(F)F)C2)cc1C (stereo not drawn) [Compound D4]
≥ 80%: pest or weed control at 12.5 ppm [7] | pest or weed control at 200 ppm [5] | pest or weed control at 200 ppm [1] | pest or weed control at 200 ppm [2] | pest or weed control at 200 ppm [3] | pest or weed control at 200 ppm [4] | pest or weed control at 200 ppm [6]

Cc1cc(C2=COC(c3cc(Cl)cc(Cl)c3)(C(F)(F)F)C2)ccc1C(=O)NCCC(F)(F)F (stereo not drawn) [Compound D6]
≥ 80%: pest or weed control at 12.5 ppm [7] | pest or weed control at 200 ppm [5] | pest or weed control at 200 ppm [1] | pest or weed control at 200 ppm [2] | pest or weed control at 200 ppm [3] | pest or weed control at 200 ppm [4] | pest or weed control at 200 ppm [6]

CCC(C)NC(=O)c1ccc(C2=COC(c3cc(Cl)cc(Cl)c3)(C(F)(F)F)C2)cc1C (stereo not drawn) [Compound D7]
≥ 80%: pest or weed control at 12.5 ppm [7] | pest or weed control at 200 ppm [1] | pest or weed control at 200 ppm [2] | pest or weed control at 200 ppm [3] | pest or weed control at 200 ppm [4]

Cc1cc(C2=COC(c3cc(Cl)cc(Cl)c3)(C(F)(F)F)C2)ccc1C(=O)NCc1ccc(Cl)nc1 (stereo not drawn) [Compound D13]
≥ 80%: pest or weed control at 12.5 ppm [7] | pest or weed control at 200 ppm [5] | pest or weed control at 200 ppm [1] | pest or weed control at 200 ppm [2] | pest or weed control at 200 ppm [3] | pest or weed control at 200 ppm [4]

Cc1cc(NC(=O)c2ccc(C3=COC(c4cc(Cl)cc(Cl)c4)(C(F)(F)F)C3)cc2C)n(C)n1 (stereo not drawn) [Compound D16]
≥ 80%: pest or weed control at 12.5 ppm [7] | pest or weed control at 200 ppm [1] | pest or weed control at 200 ppm [2] | pest or weed control at 200 ppm [3] | pest or weed control at 200 ppm [4] | pest or weed control at 200 ppm [6]

Cc1csc(NC(=O)c2ccc(C3=COC(c4cc(Cl)cc(Cl)c4)(C(F)(F)F)C3)cc2C)n1 (stereo not drawn) [Compound D17]
≥ 80%: pest or weed control at 12.5 ppm [7] | pest or weed control at 200 ppm [1] | pest or weed control at 200 ppm [2] | pest or weed control at 200 ppm [3] | pest or weed control at 200 ppm [4]

CSCC(C)(C)NC(=O)c1ccc(C2=COC(c3cc(Cl)cc(Cl)c3)(C(F)(F)F)C2)cc1C (stereo not drawn) [Compound D19]
≥ 80%: pest or weed control at 12.5 ppm [7] | pest or weed control at 200 ppm [5] | pest or weed control at 200 ppm [1] | pest or weed control at 200 ppm [2] | pest or weed control at 200 ppm [3] | pest or weed control at 200 ppm [4]

Cc1cc(C2=COC(c3cc(Cl)cc(Cl)c3)(C(F)(F)F)C2)ccc1C(=O)NC1CC2CCC1C2 (stereo not drawn) [Compound D22]
≥ 80%: pest or weed control at 200 ppm [2] | pest or weed control at 200 ppm [3] | pest or weed control at 200 ppm [6]

N#Cc1cc(C2=CC(c3cc(Cl)cc(Cl)c3)(C(F)(F)F)OC2)ccc1-n1cc(Br)cn1 (stereo not drawn) [Compound G2, 2-(4-Bromo-pyrazol-1-yl)-5-[5-(3,5-dichloro-phenyl)-5-trifluoromethyl-2,5-dihydro-furan-3-yl]-benzonitrile]
≥ 80%: pest or weed control at 200 ppm [1]
